For 29 compounds, Hepatotoxicity results are on record in ChEMBL document CHEMBL1697731, “Cheminformatics analysis of assertions mined from literature that describe drug-induced liver injury in different species” (Chem Res Toxicol, 2010).

Data set [1] relates to Hepatotoxicity. Kind of data set: Literature-mined compound from Fourches et al multi-species drug-induced liver injury (DILI) dataset, effect in non-rodents.
Data set [2] concerns Hepatotoxicity. Kind of data set: Literature-mined compound from Fourches et al multi-species drug-induced liver injury (DILI) dataset, effect in humans. The note with it: human.
In data set [3] the test system is Hepatotoxicity. Nature of the data set: Literature-mined compound from Fourches et al multi-species drug-induced liver injury (DILI) dataset, effect in rodents. As to conditions: rodentia.

In the case of `CC(=O)[O][Zn][O]C(C)=O` [ZINC ACETATE ANHYDROUS], the values for the Hepatotoxicity result in the data set with Hepatotoxicity [1] (Liver), in the data set on Hepatotoxicity [2] (Liver) and in the data set with Hepatotoxicity [3] (Liver) were “no drug-induced liver injury reported”, “no drug-induced liver injury reported” and “drug-induced liver injury reported”, respectively.
Turning to `Cc1ccc(-c2nc3ccc(C)cn3c2CC(=O)N(C)C)cc1` [ZOLPIDEM], the Hepatotoxicity result with Hepatotoxicity [1] was “no drug-induced liver injury reported”; in the data set with Hepatotoxicity [2], “drug-induced liver injury reported”; in the data set on Hepatotoxicity [3] it was “no drug-induced liver injury reported”.
On to BLEOMYCIN, for which the Hepatotoxicity result in the data set with Hepatotoxicity [1] was “no drug-induced liver injury reported”; in the data set with Hepatotoxicity [2], “drug-induced liver injury reported”; in the data set with Hepatotoxicity [3], “drug-induced liver injury reported”.
For CARBOPLATIN, the values for the Hepatotoxicity entry in the data set on Hepatotoxicity [1], with Hepatotoxicity [2] and with Hepatotoxicity [3] were “no drug-induced liver injury reported”, “drug-induced liver injury reported” and “drug-induced liver injury reported”, respectively.
On to CHOLESTYRAMINE, for which the Hepatotoxicity entry in the data set with Hepatotoxicity [1] is given as “no drug-induced liver injury reported”; in the data set on Hepatotoxicity [2], “drug-induced liver injury reported”; in the data set with Hepatotoxicity [3] it was “drug-induced liver injury reported”.
As for DALTEPARIN SODIUM, the Hepatotoxicity result with Hepatotoxicity [1] is “no drug-induced liver injury reported”; in the data set on Hepatotoxicity [2], “no drug-induced liver injury reported”; in the data set with Hepatotoxicity [3] it was “drug-induced liver injury reported”.
For the compound GADOBENATE DIMEGLUMINE, the Hepatotoxicity entry is listed as “no drug-induced liver injury reported” in the data set with Hepatotoxicity [1], “drug-induced liver injury reported” in the data set on Hepatotoxicity [2] and “no drug-induced liver injury reported” in the data set on Hepatotoxicity [3].
On to GENTAMICIN, for which the Hepatotoxicity entry is on record as “no drug-induced liver injury reported” in the data set with Hepatotoxicity [1], “no drug-induced liver injury reported” in the data set on Hepatotoxicity [2] and “drug-induced liver injury reported” with Hepatotoxicity [3].
In the case of GLATIRAMER ACETATE, the values for the Hepatotoxicity result with Hepatotoxicity [1], in the data set on Hepatotoxicity [2] and in the data set on Hepatotoxicity [3] were “no drug-induced liver injury reported”, “drug-induced liver injury reported” and “drug-induced liver injury reported”, respectively.
For GOLD SODIUM THIOMALATE, the Hepatotoxicity entry in the data set on Hepatotoxicity [1] is recorded as “no drug-induced liver injury reported”; in the data set on Hepatotoxicity [2], “drug-induced liver injury reported”; in the data set on Hepatotoxicity [3], “drug-induced liver injury reported”.
For the compound HEPARIN, the Hepatotoxicity result in the data set on Hepatotoxicity [1], in the data set with Hepatotoxicity [2] and in the data set with Hepatotoxicity [3] was “drug-induced liver injury reported” throughout.
For the compound HYALURONIC ACID, the Hepatotoxicity result in the data set on Hepatotoxicity [1] was “no drug-induced liver injury reported”; in the data set on Hepatotoxicity [2], “drug-induced liver injury reported”; with Hepatotoxicity [3], “drug-induced liver injury reported”.
With IRON(II) CITRATE, the Hepatotoxicity entry in the data set with Hepatotoxicity [1] is reported as “no drug-induced liver injury reported”; with Hepatotoxicity [2], “no drug-induced liver injury reported”; in the data set with Hepatotoxicity [3] it was “drug-induced liver injury reported”.
With IVERMECTIN, the Hepatotoxicity entry in the data set on Hepatotoxicity [1] is “no drug-induced liver injury reported”; with Hepatotoxicity [2] it was “drug-induced liver injury reported”; in the data set with Hepatotoxicity [3], “no drug-induced liver injury reported”.
LACTOSE, ANHYDROUS: the Hepatotoxicity result is “no drug-induced liver injury reported” with Hepatotoxicity [1], “no drug-induced liver injury reported” in the data set with Hepatotoxicity [2] and “drug-induced liver injury reported” in the data set on Hepatotoxicity [3].
For LECITHIN, the results for the Hepatotoxicity result in the data set on Hepatotoxicity [1], with Hepatotoxicity [2] and in the data set on Hepatotoxicity [3] were “no drug-induced liver injury reported”, “drug-induced liver injury reported” and “drug-induced liver injury reported”, respectively.
Consider MANGAFODIPIR TRISODIUM, for which the Hepatotoxicity entry was “no drug-induced liver injury reported” with Hepatotoxicity [1], “drug-induced liver injury reported” with Hepatotoxicity [2] and “no drug-induced liver injury reported” in the data set with Hepatotoxicity [3].
Consider METHYLCOBALAMIN, for which the Hepatotoxicity result in the data set on Hepatotoxicity [1] is on record as “no drug-induced liver injury reported”; in the data set with Hepatotoxicity [2], “no drug-induced liver injury reported”; with Hepatotoxicity [3] it was “drug-induced liver injury reported”.
Regarding OXALIPLATIN, the Hepatotoxicity entry in the data set with Hepatotoxicity [1] was “no drug-induced liver injury reported”; with Hepatotoxicity [2], “drug-induced liver injury reported”; with Hepatotoxicity [3], “no drug-induced liver injury reported”.
Take POLYETHYLENE GLYCOL: the values for the Hepatotoxicity entry in the data set on Hepatotoxicity [1], in the data set with Hepatotoxicity [2] and with Hepatotoxicity [3] were “no drug-induced liver injury reported”, “drug-induced liver injury reported” and “drug-induced liver injury reported”, respectively.
Turning to POLYMYXIN B, the Hepatotoxicity result in the data set on Hepatotoxicity [1] is on record as “no drug-induced liver injury reported”; in the data set with Hepatotoxicity [2], “drug-induced liver injury reported”; in the data set on Hepatotoxicity [3], “drug-induced liver injury reported”.
As to POLYVINYL ALCOHOL, the Hepatotoxicity result in the data set on Hepatotoxicity [1] was “drug-induced liver injury reported”; in the data set with Hepatotoxicity [2], “no drug-induced liver injury reported”; with Hepatotoxicity [3] it was “no drug-induced liver injury reported”.
Regarding PORFIMER SODIUM, the Hepatotoxicity result in the data set with Hepatotoxicity [1] is recorded as “no drug-induced liver injury reported”; with Hepatotoxicity [2], “no drug-induced liver injury reported”; in the data set on Hepatotoxicity [3], “drug-induced liver injury reported”.
Regarding SILYMARIN, the Hepatotoxicity entry was “no drug-induced liver injury reported” in the data set with Hepatotoxicity [1], “drug-induced liver injury reported” in the data set with Hepatotoxicity [2] and “drug-induced liver injury reported” in the data set with Hepatotoxicity [3].
In the case of SPIRAMYCIN, the Hepatotoxicity result in the data set on Hepatotoxicity [1] was “no drug-induced liver injury reported”; in the data set on Hepatotoxicity [2], “drug-induced liver injury reported”; with Hepatotoxicity [3], “no drug-induced liver injury reported”.
Consider TYLOXAPOL, for which the Hepatotoxicity entry is “no drug-induced liver injury reported” in the data set with Hepatotoxicity [1], “no drug-induced liver injury reported” with Hepatotoxicity [2] and “drug-induced liver injury reported” with Hepatotoxicity [3].
As for VITAMIN B12, the Hepatotoxicity entry with Hepatotoxicity [1] is “no drug-induced liver injury reported”; in the data set on Hepatotoxicity [2] it was “drug-induced liver injury reported”; in the data set on Hepatotoxicity [3] it was “no drug-induced liver injury reported”.
VITAMIN E: the Hepatotoxicity entry in the data set with Hepatotoxicity [1], with Hepatotoxicity [2] and in the data set on Hepatotoxicity [3] was “drug-induced liver injury reported” in each case.
Regarding VITAMIN K, the values for the Hepatotoxicity result in the data set with Hepatotoxicity [1], in the data set on Hepatotoxicity [2] and with Hepatotoxicity [3] were “no drug-induced liver injury reported”, “drug-induced liver injury reported” and “drug-induced liver injury reported”, respectively.
